In patent US8258151B2, “3-aminoimidazo [1,2-A] pyridine derivatives as SGLT inhibitors” (Merck Patent GmbH, priority 2006, dated 2012):
pIC50: −log10 of the molar value.

What was measured:
SGLT2 = molecular target: T1, SGLT2 (Homo sapiens, UniProt P31639); test: SGLT2 activity measurement: 14C-AMG uptake in BHK cells transfected with SGLT2; assay type: cell-based; conditions: AMG 2 mM, 37° C., 90 min
T1 construct: expressed in transfected cells
T1 sequence (P31639 1-672): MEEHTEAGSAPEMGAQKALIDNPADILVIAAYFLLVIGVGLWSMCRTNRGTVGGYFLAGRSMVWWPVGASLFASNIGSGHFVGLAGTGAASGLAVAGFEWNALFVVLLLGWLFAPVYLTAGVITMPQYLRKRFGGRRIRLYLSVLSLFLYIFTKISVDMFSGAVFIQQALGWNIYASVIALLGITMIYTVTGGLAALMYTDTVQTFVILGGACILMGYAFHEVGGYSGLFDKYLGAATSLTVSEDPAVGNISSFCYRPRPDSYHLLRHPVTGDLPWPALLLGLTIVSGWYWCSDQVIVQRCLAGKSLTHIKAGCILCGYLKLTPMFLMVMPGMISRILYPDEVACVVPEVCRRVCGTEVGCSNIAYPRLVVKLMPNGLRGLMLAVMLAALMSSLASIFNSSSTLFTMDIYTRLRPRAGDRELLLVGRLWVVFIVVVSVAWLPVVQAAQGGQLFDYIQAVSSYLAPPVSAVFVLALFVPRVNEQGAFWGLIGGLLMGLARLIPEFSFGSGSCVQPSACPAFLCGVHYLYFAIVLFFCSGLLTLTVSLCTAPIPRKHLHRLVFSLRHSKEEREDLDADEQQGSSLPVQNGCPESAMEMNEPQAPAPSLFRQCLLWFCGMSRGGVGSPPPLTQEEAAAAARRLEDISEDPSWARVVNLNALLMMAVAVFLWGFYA
In short: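 BHK21 cells stably expressing human SGLT2 took up 14C-AMG (added as 2 mM solution) ± compound for 90 min at 37 °C in Na+-containing HEPES/Tris buffer, pH 7.4. Uptake was measured by scintillation counting after lysis. Non-specific uptake was defined in sodium-free sucrose buffer.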

SGLT1 = molecular target: T2, SGLT1 (Homo sapiens, UniProt P13866); test: SGLT1 activity measurement: 14C-AMG uptake in BHK cells transfected with SGLT1; assay type: cell-based; conditions: AMG 50 μM, 37° C., 90 min
T2 construct: expressed in transfected cells
T2 sequence (P13866 1-664): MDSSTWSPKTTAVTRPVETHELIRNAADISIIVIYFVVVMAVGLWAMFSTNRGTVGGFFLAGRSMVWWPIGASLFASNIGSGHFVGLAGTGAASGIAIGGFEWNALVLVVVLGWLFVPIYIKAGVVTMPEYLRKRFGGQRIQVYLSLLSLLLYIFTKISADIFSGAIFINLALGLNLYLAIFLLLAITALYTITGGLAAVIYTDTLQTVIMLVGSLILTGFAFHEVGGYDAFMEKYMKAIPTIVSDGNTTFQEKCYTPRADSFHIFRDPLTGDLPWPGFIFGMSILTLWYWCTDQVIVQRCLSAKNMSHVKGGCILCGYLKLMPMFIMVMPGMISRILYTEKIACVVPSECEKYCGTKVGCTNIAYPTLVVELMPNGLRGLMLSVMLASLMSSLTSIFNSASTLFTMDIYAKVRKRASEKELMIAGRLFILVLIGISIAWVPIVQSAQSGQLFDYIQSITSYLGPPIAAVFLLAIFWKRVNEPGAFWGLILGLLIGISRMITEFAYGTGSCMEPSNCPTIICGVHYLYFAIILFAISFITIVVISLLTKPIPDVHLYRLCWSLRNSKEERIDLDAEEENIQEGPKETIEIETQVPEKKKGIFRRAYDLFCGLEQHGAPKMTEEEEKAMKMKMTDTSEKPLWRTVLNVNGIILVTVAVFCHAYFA
In short: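 BHK21 cells stably transfected with human SLC5A1 were incubated with 14C-AMG (added solution at 50 μM) ± compound for 90 min at 37 °C. The buffer was 140 mM NaCl, HEPES/Tris, pH 7.4. Lysed-cell radioactivity was counted by scintillation, and non-specific uptake was measured in sodium-free sucrose buffer.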

| Compound | pIC50 (SGLT2) | pIC50 (SGLT1) |
| --- | --- | --- |
| COc1cc(C)c(-c2nc3ccccn3c2Nc2c(C)cccc2C)c(OCC(N)=O)c1 [Compound A172, 2-[2-(Aminocarbonylmethoxy)-4-methoxy-6-methylphenyl]-3-(2,6-dimethylphenylamino)-imidazo[1,2-a]pyridine] | 6.00 to 8.00 | < 5.00 |
| COc1cc(C)c(-c2nc3ccccn3c2Nc2c(Cl)cc(F)cc2Cl)c(OCC(N)=O)c1 [Compound A224, 2-[2-(Aminocarbonylmethoxy)-4-methoxy-6-methylphenyl]-3-(4-fluoro-2,6-dichlorophenyl-amino)imidazo[1,2-a]pyridine] | 6.00 to 8.00 | 5.00 to 6.00 |
| COc1cc(C)c(-c2nc3ccc(F)cn3c2Nc2c(Cl)cccc2Cl)c(OCC(N)=O)c1 [Compound A205, 2-[2-(Aminocarbonylmethoxy)-4-methoxy-6-methylphenyl]-3-(2,6-dichlorophenylamino)-6-fluoroimidazo[1,2-a]pyridine] | 6.00 to 8.00 | 5.00 to 6.00 |
| CCc1cc(OCCO)cc(OCC(N)=O)c1-c1nc2ccc(F)cn2c1Nc1c(C)cccc1C [Compound A195, 2-[2-(Aminocarbonylmethoxy)-4-(2-hydroxy-ethoxy)-6-ethylphenyl]-3-(2,6-dimethylphenyl-amino)-6-fluoroimidazo[1,2-a]pyridine] | 6.00 to 8.00 | < 5.00 |
| Cc1cccc(C)c1Nc1c(-c2c(C)cc(OCC(O)CO)cc2OCC(N)=O)nc2ccc(F)cn12 (stereo not shown) [Compound A208, 2-[2-(Aminocarbonylmethoxy)-4-(2,3-dihydroxy-propoxy)-6-methylphenyl]-3-(2,6-dimethylphenyl-amino)-6-fluoroimidazo[1,2-a]pyridine] | 6.00 to 8.00 | < 5.00 |
| Cc1cccc(C)c1Nc1c(-c2ccccc2OCC(N)=O)nc2c(C)cccn12 [Compound A8, 2-[2-(Aminocarbonylmethoxy)phenyl]-3-(2,6-di-methylphenylamino)-8-methylimidazo[1,2-a]-pyridine] | 5.00 to 6.00 | < 5.00 |
| COc1cccc(OCC(N)=O)c1-c1nc2ccc(F)cn2c1Nc1c(C)cccc1C [Compound A1, 2-[2-(aminocarbonylmethoxy)-6-methoxyphenyl]-3-(2,6-dimethylphenylamino)-6-fluoroimidazo[1,2-a]pyridine] | 6.00 to 8.00 | 5.00 to 6.00 |
| COC(=O)Cc1ccc(OCC(N)=O)c(-c2nc3ccccn3c2Nc2c(C)cccc2C)c1 [Compound A183, 2-[2-(Aminocarbonylmethoxy)-5-(methoxycarbonylmethyl)phenyl]-3-(2,6-dimethylphenylamino)imidazo[1,2-a]pyridine] | 5.00 to 6.00 | < 5.00 |
| Cc1cccc(C)c1Nc1c(-c2c(O)cccc2OCC(N)=O)nc2ccccn12 [Compound A176, 2-[2-(Aminocarbonylmethoxy)-6-hydroxyphenyl]-3-(2,6-dimethylphenylamino)imidazo[1,2-a]-pyridine] | 5.00 to 6.00 | < 5.00 |
| CCc1cc(OS(=O)(=O)N(C)C)cc(OCC(N)=O)c1-c1nc2ccc(F)cn2c1Nc1c(C)cccc1C [Compound A228, 2-[2-(Aminocarbonylmethoxy)-4-dimethyl-sulfamoyloxy-6-ethylphenyl]-3-(2,6-dimethyl-phenylamino)-6-fluoroimidazo[1,2-a]pyridine] | 6.00 to 8.00 | < 5.00 |
| CCc1cc(OC)cc(OCC(N)=O)c1-c1nc2ccc(F)cn2c1Nc1c(C)cccc1C [Compound A185, 2-[2-(Aminocarbonylmethoxy)-4-methoxy-6-ethylphenyl]-3-(2,6-dimethylphenylamino)-6-fluoroimidazo[1,2-a]pyridine] | 6.00 to 8.00 | 5.00 to 6.00 |
| COc1cc(C)c(-c2nc3ccc(F)cn3c2Nc2c(C)cccc2OC)c(OCC(N)=O)c1 [Compound A214, 2-[2-(Aminocarbonylmethoxy)-4-methoxy-6-methylphenyl]-3-(2-methoxy-6-methylphenyl-amino)-6-fluoroimidazo[1,2-a]pyridine] | 6.00 to 8.00 | < 5.00 |
| Cc1cccc(C)c1Nc1c(-c2c(OCC(N)=O)ccc3ccccc23)nc2ccc(F)cn12 [Compound A180, 2-{1-[3-(2,6-Dimethylphenylamino)-6-fluoro-imidazo[1,2-a]pyridin-2-yl]naphthalen-2-yloxy}-acetamide] | 6.00 to 8.00 | 5.00 to 6.00 |
| Cc1cccc(C)c1Nc1c(-c2c(C)cc(O)cc2OCC(N)=O)nc2ccccn12 [Compound A171, 2-[2-(Aminocarbonylmethoxy)-4-hydroxy-6-methylphenyl]-3-(2,6-dimethylphenylamino)-imidazo[1,2-a]pyridine] | 6.00 to 8.00 | < 5.00 |
| COc1cc(C)c(-c2nc3ccc(F)cn3c2Nc2c(C)cccc2C(F)(F)F)c(OCC(N)=O)c1 [Compound A236, 2-[2-(Aminocarbonylmethoxy)-4-methoxy-6-methylphenyl]-3-(2-methyl-6-trifluoromethyl-phenylamino)-6-fluoroimidazo[1,2-a]pyridine] | 6.00 to 8.00 | 5.00 to 6.00 |
| CCc1cc(OC)cc(OCC(N)=O)c1-c1nc2ccc(F)cn2c1Nc1c(C)cc(F)cc1C [Compound A235, 2-[2-(Aminocarbonylmethoxy)-4-methoxy-6-ethylphenyl]-3-(2,6-dimethyl-4-fluorophenyl-amino)-6-fluoroimidazo[1,2-a]pyridine] | 6.00 to 8.00 | 5.00 to 6.00 |
| COc1cc(C)c(-c2nc3ccc(F)cn3c2Nc2c(C)cccc2Cl)c(OCC(N)=O)c1 [Compound A256, 2-[2-(Aminocarbonylmethoxy)-4-methoxy-6-methylphenyl]-3-(2-chloro-6-methylphenyl-amino)-6-fluoroimidazo[1,2-a]pyridine] | 6.00 to 8.00 | 5.00 to 6.00 |
| Cc1cccc(C)c1Nc1c(-c2c(C)cccc2OCC(N)=O)nc2ccc(F)cn12 [Compound A2, 2-[2-(aminocarbonylmethoxy)-6-methylphenyl]-3-(2,6-dimethylphenylamino)-6-fluoroimidazo[1,2-a]pyridine] | 6.00 to 8.00 | 5.00 to 6.00 |
| COC(=O)c1cccc(C)c1Nc1c(-c2c(C)cc(OC)cc2OCC(N)=O)nc2ccc(F)cn12 [Compound A246, 2-[2-(Aminocarbonylmethoxy)-4-methoxy-6-methylphenyl]-3-(2-methyl-6-methoxycarbonyl-phenylamino)-6-fluoroimidazo[1,2-a]pyridine] | 5.00 to 6.00 | < 5.00 |
| COc1cc(C)c(-c2nc3ccc(F)cn3c2Nc2c(C)cccc2[N+](=O)[O-])c(OCC(N)=O)c1 [Compound A232, 2-[2-(Aminocarbonylmethoxy)-4-methoxy-6-methylphenyl]-3-(2-methyl-6-nitrophenylamino)-6-fluoroimidazo[1,2-a]pyridine] | 6.00 to 8.00 | 5.00 to 6.00 |
| COc1cc(C)c(-c2nc3ccc(F)cn3c2Nc2c(F)cc(F)cc2F)c(OCC(N)=O)c1 [Compound A244, 2-[2-(Aminocarbonylmethoxy)-4-methoxy-6-methylphenyl]-3-(2,4,6-trifluorophenylamino)-6-fluoroimidazo[1,2-a]pyridine] | 6.00 to 8.00 | 5.00 to 6.00 |
| COc1cc(OC)c(-c2nc3ccc(F)cn3c2Nc2c(C)cc(F)cc2C)c(OCC(N)=O)c1 [Compound A200, 2-[2-(Aminocarbonylmethoxy)-4-methoxy-6-methoxyphenyl]-3-(2,6-dimethyl-4-fluorophenyl-amino)-6-fluoroimidazo[1,2-a]pyridine] | 6.00 to 8.00 | < 5.00 |
| CCc1cc(OC)cc(OCC(N)=O)c1-c1nc2c(O)cccn2c1Nc1c(C)cccc1C [Compound A194, 2-[2-(Aminocarbonylmethoxy)-4-methoxy-6-ethylphenyl]-3-(2,6-dimethylphenylamino)-8-hydroxyimidazo[1,2-a]pyridine] | 5.00 to 6.00 | < 5.00 |
